# In patent publication US20050101595A1, “N-containing cycloalkyl-substituted amino-thiazole derivatives and pharmaceutical compositions for inhibiting cell proliferation and methods for their use” (PFIZER INC., priority 2003, published 2005):
# Where a name gives a salt, the structure may show the parent alone.
# How the values were obtained:
# CDK2/Cyclin A = CDK2/Cyclin A (Homo sapiens, UniProt P24941); test: Inhibition of CDK2/Cyclin A Retinoblastoma Kinase Activity; type: biochemical; conditions: for inhibition at 0.05 µM: read-out: % inhibition of CDK2 (@ 0.05 μM), compound at 0.05 μM; for Ki: apparent Ki, CDK2/proteolyzed cyclin A, Rb fragment substrate, 25 μM ATP
# Method: Cyclin-dependent kinase activity was measured by quantifying the enzyme-catalyzed, time-dependent incorporation of radioactive phosphate from [^32P]ATP or [^33P]ATP into a protein substrate. Unless noted otherwise, assays were performed in 96-well plates in a total volume of 50 μL, in the presence of 10 mM HEPES (N-[2-hydroxyethyl]piperazine-N′-[2-ethanesulfonic acid]) (pH 7.4), 10 mM MgCl2, 25 μM adenosine triphosphate (ATP), 1 mg/mL ovalbumin, 5 μg/mL leupeptin, 1 mM dithiothreitol, 10 mM β-glycerophosphate, 0.1 mM sodium vanadate, 1 mM sodium fluoride, 2.5 mM ethylene glycol-bis(β-aminoethyl ether)-N,N,N′N′-tetraacetic acid (EGTA), 2% (v/v) dimethylsulfoxide, and 0.03-0.4 μCi [^32/33P]ATP per reaction. Reactions were initiated with enzyme, incubated at 30° C., and terminated after 20 minutes by the addition of ethylenediaminetetraacetic acid (EDTA) to 250 mM. The phosphorylated substrate was then captured on a nitrocellulose or phosphocellulose membrane using a 96-well filtration manifold, and unincorporated radioactivity was removed by repeated washing with 0.85% phosphoric acid. Radioactivity was quantified by exposing the dried membranes to a phosphorimager.
# Inhibition was measured relative to control wells that contained all reaction components including 2% (v/v) DMSO but no compound, after subtraction of background radioactivity measured in the absence of enzyme. Apparent Ki values of discrete compounds were measured by assaying enzyme activity in the presence of different inhibitor compound concentrations and subtracting the background radioactivity measured in the absence of enzyme. The kinetic parameters (kcat, Km for ATP) were measured for each enzyme under the usual assay conditions by determining the dependence of initial rates on ATP concentration. Inhibition data were fit to an equation for competitive inhibition using Kaleidagraph (Synergy Software), or were fit to an equation for competitive tight-binding inhibition using the software KineTic (BioKin, Ltd.).
# Inhibition of CDK2/Cyclin A Retinoblastoma Kinase Activity:
# CDK2 was purified using published methodology (Rosenblatt et al., “Purification and Crystallization of Human Cyclin-dependent Kinase 2,” J. Mol. Biol., vol. 230, 1993, pp. 1317-1319) from insect cells that had been infected with a baculovirus expression vector. […] A complex of CDK2 and proteolyzed cyclin A was prepared and purified by gel filtration. The substrate for this assay was the same Rb substrate fragment used for the CDK4 assays, and the methodology of the CDK2/delta cyclin A and the CDK4/delta cyclin D3 assays was essentially the same, except that CDK2 was present at 10 nM or 19 nM. The duration of the assay was 60 or 75 minutes, during which the time-dependence of product formation was linear and initial rate conditions were met. And, the percent inhibitions of the compounds of Example O through Example R were calculated as described above and shown in Table 2.
# HCT-116 cell line = test: Inhibition of cell growth, tetrazolium salt (MTT) assay; type: cell-based; conditions: Homo sapiens, MTT; for inhibition at 0.175 µM: HCT-116, HCT-116 cells, compound at 0.175 uM; for IC50: HCT-116, 120 h, first HCT-116 column (c4), three to five days, read-out: HCT-116 IC50
# How it was run: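 MTT colorimetric viability: three-to-five-day compound exposure in 0.5% (v/v) DMSO at 37° C, MTT 0.2 mg/mL for the last 4 h, A540 compared with vehicle-treated cells.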
SMILES,inhibition at 0.05 µM (CDK2/Cyclin A),inhibition at 0.175 µM (HCT-116 cell line),Ki (CDK2/Cyclin A),IC50 (HCT-116 cell line)
Nc1nc(NC2CCN(S(=O)(=O)CCCNCc3ccc(F)cc3)CC2)sc1C(=O)c1c(F)cccc1F [Example V52],92%,65%,–,–
COC(=O)CCCNCCCS(=O)(=O)N1CCC(Nc2nc(N)c(C(=O)c3c(F)cccc3F)s2)CC1 [Example V141],82%,22%,–,–
Nc1nc(NC2CCN(S(=O)(=O)CCCNc3ccon3)CC2)sc1C(=O)c1c(F)cccc1F [Example V116],77%,0%,–,–
Nc1nc(NC2CCN(S(=O)(=O)CCCNCc3cccnc3)CC2)sc1C(=O)c1c(F)cccc1F [Example V6],80%,1%,–,–
Nc1nc(NC2CCN(S(=O)(=O)CCCNC3CCCCC3)CC2)sc1C(=O)c1c(F)cccc1F [Example V72],90%,14%,–,–
"CN(CCCS(=O)(=O)N1CCC(Nc2nc(N)c(C(=O)c3c(F)cccc3F)s2)CC1)C1CCCCC1 [Example K61, (4-Amino-2-{1-[3-(cyclohexyl-methyl-amino)-propane-1-sulfonyl]-piperidin-4-ylamino}-thiazol-5-yl)-(2,6-difluoro-phenyl)-methanone. Acetic Acid Salt]",–,–,8 nM,170 nM
Nc1nc(NC2CCN(S(=O)(=O)CCCN[C@H]3CC[C@@H](CO)CC3)CC2)sc1C(=O)c1c(F)cccc1F [Example V170],82%,14%,–,–
CC1CCN(CCCS(=O)(=O)N2CCC(Nc3nc(N)c(C(=O)c4c(F)cccc4F)s3)CC2)CC1 [Example V102],80%,89%,–,–
CC(C)CCNCCCS(=O)(=O)N1CCC(Nc2nc(N)c(C(=O)c3c(F)cccc3F)s2)CC1 [Example V60],84%,18%,–,–
Nc1nc(NC2CCN(S(=O)(=O)CCCNCC(O)CO)CC2)sc1C(=O)c1c(F)cccc1F (stereo not shown) [Example V48],79%,7%,–,–
CCC(O)CNCCCS(=O)(=O)N1CCC(Nc2nc(N)c(C(=O)c3c(F)cccc3F)s2)CC1 (stereo not shown) [Example V83],79%,0%,–,–
Nc1nc(NC2CCN(S(=O)(=O)CCCN3CCC(CCO)CC3)CC2)sc1C(=O)c1c(F)cccc1F [Example V134],80%,8%,–,–
CC(C)[C@H](CO)NCCCS(=O)(=O)N1CCC(Nc2nc(N)c(C(=O)c3c(F)cccc3F)s2)CC1 [Example V70],89%,2%,–,–
CN(C)CCCNCCCS(=O)(=O)N1CCC(Nc2nc(N)c(C(=O)c3c(F)cccc3F)s2)CC1 [Example V15],62%,11%,–,–
Nc1nc(NC2CCN(S(=O)(=O)CCCNCCSCCO)CC2)sc1C(=O)c1c(F)cccc1F [Example V125],87%,5%,–,–
C=CCN(C)CCCS(=O)(=O)N1CCC(Nc2nc(N)c(C(=O)c3c(F)cccc3F)s2)CC1 [Example V135],78%,82%,–,–
Nc1nc(NC2CCN(S(=O)(=O)CCCN3CCC(F)(F)CC3)CC2)sc1C(=O)c1c(F)cccc1F [Example V168],83%,37%,–,–
"CN(CCCS(=O)(=O)N1CCC(Nc2nc(N)c(C(=O)c3c(F)cccc3F)s2)CC1)Cc1ccco1 [Example V179, (4-Amino-2-{[1-({3-[(2-furylmethyl)(methyl)amino]propyl}sulfonyl)-4-piperidinyl]amino}-1,3-thiazol-5-yl)(2,6-difluorophenyl)methanone.]",–,–,11 nM,170 nM
CN(C)C1CCN(CCCS(=O)(=O)N2CCC(Nc3nc(N)c(C(=O)c4c(F)cccc4F)s3)CC2)C1 (stereo not shown) [Example V99],69%,0%,–,–
Nc1nc(NC2CCN(S(=O)(=O)CCCNCCN3CCCCC3)CC2)sc1C(=O)c1c(F)cccc1F [Example V5],79%,7%,–,–
